Holding throughout (assay type): cell-based
The test system of assay [1] is PSMA-expressing target cells. Put plainly: In vitro cell killing, Method 1: CellTiter-Glo luminescent cell viability assay, PSMA-expressing target cells. The note with it: 24 hours, EC50 in molar (M). As to the method:
(§1) In vitro cell killing of antigen expressing target cells in the presence of anti-cotinine CAR-T or CAR-NK cells and antigen matched CyTaCs was evaluated by three different methods: Cell Titler Glo assay (method 1); Real-Time Cell Analysis (RTCA) Impedance Assay (method 2); and live cell analysis assay (method 3), as described below.
(§2) A luminescent assay was performed to quantify the number of viable cells remaining following co-incubation of antigen-expressing adherent target cells, anti-cotinine CAR-T cells, and antigen matched CyTaCs using a CellTiter-Glo Luminescent Cell Viability Assay (Promega). […] After co-incubation, the supernatants were removed from the wells, the residual adherent target cells in the wells were then analyzed for cell viability using CellTiter-Glo® Luminescent Cell Viability Assay (Promega) according to manufacturer's instructions, as described below in Example 5.
(§3) CyTaC compounds of Formula (I) were evaluated for anti-cotinine immune cell mediated cell cytotoxicity in the above assay in one or more experimental runs and the results are shown in Table 6 below and FIGS. 2A, 2B, and 2C. […] The pEC50 value is the negative log of the EC50 value, wherein the EC50 value is half maximal effective concentration measured in molar (M). […]
(Cellular ATP, detected with luciferase, serves as a proxy for viable cell number.)

Assay [2] concerns LNCap (PSMA+) cells. Kind of assay: Pro-inflammatory cytokine (IFN-gamma) production assay, PSMA-expressing target cells (LNCap), MSD ELISA. The note with it: Homo sapiens, EC50 in molar (M). The procedure:
(§4) Example 4: Immune Effector Cell (i.e., Anti-Cotinine CAR-T Cell, Anti-Cotinine CAR-NK92 Cell) Functional Study: Pro-Inflammatory Cytokine (e.g., IFN-Gamma) Production Assay
(§5) An ELISA assay was performed to quantify the level of IFN-gamma production by anti-cotinine CAR-T cells in the presence of CyTaC using a Meso Scale Discovery (MSD) T-Plex Multispot Cytokine Assay System. To perform the ELISA assay, each sample was obtained from the co-incubation of anti-cotinine immune effector cells (i.e. CAR-T, CAR-NK92), antigen-expressing target cells, and respective antigen-targeting CyTaCs. CAR-T and CAR-NK cells were prepared as described above in Examples 2 and 3, respectively.
Antigen-expressing target cells were pre-seeded at a density 1.5×10^4 cells per 100 μL of media in each well of a 96-well plate and grown overnight. For functional confirmation of immune effector cell (i.e. anti-cotinine CAR-T cells, anti-cotinine CAR-NK92 cells) activation, 100 nM or 10 nM of CyTaC was introduced into each well where the target cells were seeded to activate the anti-cotinine immune effector cell. For dose response determinations, 10 μM to 0.01 nM of CyTaC was added to the wells. The anti-cotinine immune effector cells (i.e. CAR-T, CAR-NK92) were next added to the wells at a fixed ratio (between 1:1 and 10:1) of effector cells to antigen-expressing After co-incubation, the supernatants were removed from the wells and analyzed to determine IFNγ release using a pro-inflammatory cytokine production assay (Meso Scale Diagnostics V-PLEX Human IFNγ Kit) according to manufacturer's protocol.
For dose response determinations, EC50 calculations were done using Graphpad Prism Software, specifically a nonlinear regression curve fit (Y=Bottom+(Top−Bottom)/(1+10^((Log EC50−X)*HillSlope))).
(§6) CyTaC compounds of Formula (I) were tested for anti-cotinine immune cell (i.e. CAR-T, CAR-NK92) activation as measured by IFN-Gamma production in the above assay in one or more experimental runs and the results are shown in Table 5. Potency of the compounds of Formula (I) is reported as a pEC50 value. The pEC50 value is the negative log of the EC50 value, wherein the EC50 value is half maximal effective concentration measured in molar (M). For compounds tested in more than one experimental run, the pEC50 value is reported as an average.
For orientation: An ELISA detects its analyte on a solid surface through an enzyme-linked reagent.

Assay [3] relates to LNCap (PSMA+) cells. Put plainly: In vitro cell killing, Method 3: Live-Cell Analysis assay (Incucyte), PSMA-expressing target cells (LNCap). The note with it: Homo sapiens, 24 hour timepoint, 5:1 effector cells to target cells, EC50 in molar (M), read-out: Incucyte ® pEC50, LNCap (converted). As to the method: as §1
Method 3: Live-Cell Analysis Assay (Incucyte®)
A Live-Cell Analysis assay (Incucyte®) was performed to assess in vitro cell killing of fluorescently-labelled antigen-expressing adherent target cells co-incubated with anti-cotinine immune effector cells (i.e. CAR-T cells, CAR-NK92 cells) and antigen matched CyTaCs. To perform the live-cell analysis assay, fluorescently-labelled antigen-expressing target cells were seeded at a density of 1.0×10^4 to 3×10^4 cells per 100 μL of media, and grown overnight in a 37° C. incubator. The next day, 50 μL of antigen-matched CyTaC solution was added at a concentration to result in 10 μM to 0.01 nM final assay concentration, followed by the addition of 50 μL anti-cotinine immune effector cells (i.e. CAR-T cells, CAR-NK92 cells) at a ratio of 5:1 effector cells to antigen-presenting target cells. The samples were placed in Live-Cell Analysis (Incucyte®) instrument, and the fluorescence of the wells was recorded every 2 hours for an additional 24 to 48 hours.
as §6, with “were evaluated” for “were tested”, “CAR-NK92) mediated cell cytotoxicity” for “CAR-NK92) activation”, “by fluorescence of viable cells” for “by IFN-Gamma production”, “Table 7 and FIG. 4.” for “Table 5.”, “pEC50 value at the 24 hour timepoint.” for “pEC50 value.”

The subject of assay [4] is αVβ6-expressing target cells. Kind of assay: In vitro cell killing, Method 1: CellTiter-Glo luminescent cell viability assay, αVβ6-expressing target cells. The note with it: anti-cotinine CAR-T, 24 hours, EC50 in molar (M), read-out: Cell Titler Glo pEC50 (CAR-T) (converted). The procedure: as §1, §2, §3
Assay [5] has as its system αVβ6-expressing target cells. Kind of assay: Pro-inflammatory cytokine (IFN-gamma) production assay, αVβ6-expressing target cells. The note with it: EC50 in molar (M). As to the method: as §4, §5
(§7) Antigen-expressing target cells were pre-seeded at a density 1.5×10^4 cells per 100 μL of media in each well of a 96-well plate and grown overnight. […] The anti-cotinine immune effector cells (i.e. CAR-T, CAR-NK92) were next added to the wells at a fixed ratio (between 1:1 and 10:1) of effector cells to antigen-expressing After co-incubation, the supernatants were removed from the wells and analyzed to determine IFNγ release using a pro-inflammatory cytokine production assay (Meso Scale Diagnostics V-PLEX Human IFNγ Kit) according to manufacturer's protocol. […]

The subject of assay [6] is FOLR-expressing target cells. Put plainly: In vitro cell killing, Method 1: CellTiter-Glo luminescent cell viability assay, FOLR-expressing target cells. The note with it: 24 hours, EC50 in molar (M). As to the method:
as §1, §2, §3

Assay [7] has as its system FOLR-expressing target cells. Put plainly: Pro-inflammatory cytokine (IFN-gamma) production assay, FOLR-expressing target cells. The note with it: EC50 in molar (M). As to the method: as §4, §5, §7
Assay [8] relates to FAP-expressing target cells. Put plainly: In vitro cell killing, Method 1: CellTiter-Glo luminescent cell viability assay, FAP-expressing target cells. The note with it: 24 hours, EC50 in molar (M). The procedure: as §1, §2, §3
The test system of assay [9] is FAP-expressing target cells. Kind of assay: Pro-inflammatory cytokine (IFN-gamma) production assay, FAP-expressing target cells. The note with it: EC50 in molar (M). The procedure: as §4, §5, §7
Where [10] appears, read: anti-cotinine CAR-NK, read-out: Cell Titler Glo pEC50 (CAR-NK) (converted).
The mark [11] stands for this setting: anti-cotinine CAR-T, read-out: Cell Titler Glo pEC50 (CAR-T) (converted).
[12] abbreviates: CAR-T cell activation, PSMA-targeting CyTaCs, read-out: IFNγ Production pEC50, LNCap (converted).
Where [13] appears, read: anti-cotinine CAR-NK, read-out: IFNγ Production pEC50 (CAR-NK) (converted).
[14] abbreviates: anti-cotinine CAR-T, read-out: IFNγ Production pEC50 (CAR-T) (converted).

Each structure is given as a SMILES string. Like-named read-outs stand apart in the source and are kept apart here.

With `CN1C(=O)C[C@H](C(=O)NCCO[C@H]2CC[C@H](OCCCC(=O)N[C@H]3CC[C@H](C(=O)N[C@@H](Cc4ccc5ccccc5c4)C(=O)NCCCC[C@H](NC(=O)N[C@@H](CCC(=O)O)C(=O)O)C(=O)O)CC3)CC2)[C@H]1c1cccnc1` [compound 1], the EC50 in [1] (setting [10]) is 3.98e-11 M; in [1] (setting [11]), 1.58e-10 M; with LNCap (PSMA+) cells [2] (setting [12]), 1.58e-10 M; in the assay on LNCap (PSMA+) cells [2] (anti-cotinine CAR-NK, PSMA-expressing target cells, read-out: IFNγ Production pEC50 (CAR-NK) (converted)), 1.58e-11 M; with LNCap (PSMA+) cells [2] (anti-cotinine CAR-T, PSMA-expressing target cells, read-out: IFNγ Production pEC50 (CAR-T) (converted)) it was 1.58e-10 M; in the assay with LNCap (PSMA+) cells [3], 2.51e-10 M.
As for `CN1C(=O)C[C@H](C(=O)NCCO[C@H]2CC[C@H](OCCCC(=O)N[C@H]3CC[C@H](C(=O)NCCNC(=O)[C@H](Cc4ccccc4)NC(=O)[C@H](Cc4ccccc4)NC(=O)CCCCCCCNC(=O)CC[C@H](NC(=O)N[C@@H](CCC(=O)O)C(=O)O)C(=O)O)CC3)CC2)[C@H]1c1cccnc1` [compound 2], the values for the EC50 in the assay with LNCap (PSMA+) cells [2] (setting [12]) and in the assay with LNCap (PSMA+) cells [3] were 5.01e-08 M and 3.98e-09 M, respectively.
On the same counts, the results for `CN1C(=O)C[C@H](C(=O)NCCNC(=O)[C@H](Cc2ccccc2)NC(=O)[C@H](Cc2ccccc2)NC(=O)CCCCCCCNC(=O)CC[C@H](NC(=O)N[C@@H](CCC(=O)O)C(=O)O)C(=O)O)[C@H]1c1cccnc1` [compound 3] are 1e-07 M and 1.26e-08 M.
Turning to `CN1C(=O)C[C@H](C(=O)NCCO[C@H]2CC[C@H](OCCCC(=O)N[C@H]3CC[C@H](C(=O)NCCNC(=O)CC[C@H](NC(=O)N[C@@H](CCC(=O)O)C(=O)O)C(=O)O)CC3)CC2)[C@H]1c1cccnc1` [compound 4], the EC50 was 5.01e-08 M in the assay with LNCap (PSMA+) cells [2] (setting [12]) and 1e-08 M with LNCap (PSMA+) cells [3].
Take `CN1C(=O)C[C@H](C(=O)NCCO[C@H]2CC[C@H](OCCCC(=O)N[C@H]3CC[C@H](C(=O)N4CCN(c5cccc([C@H](CC(=O)O)CN6CC[C@@H](CCc7ccc8c(n7)NCCC8)C6)c5)CC4)CC3)CC2)[C@H]1c1cccnc1` [compound 5]: the values for the EC50 in assay [4], in [5] (setting [13]) and in [5] (setting [14]) were 2.51e-10 M, 5.01e-10 M and 6.31e-10 M, respectively.
Turning to `CN1C(=O)C[C@H](C(=O)NCCO[C@H]2CC[C@H](OCCCC(=O)N[C@H]3CC[C@H](C(=O)NCCNC(=O)CC[C@H](NC(=O)c4ccc(NCc5cnc6nc(N)[nH]c(=O)c6n5)cc4)C(=O)O)CC3)CC2)[C@H]1c1cccnc1` [compound 6], the EC50 in assay [6] (setting [10]) is 1e-09 M; in assay [7] (setting [13]), 2.51e-12 M; in assay [7] (setting [14]) it was 1.58e-08 M. In addition, the “Cell Titler Glo pEC50 (CAR-T)” value in assay [6] (anti-cotinine CAR-T) is listed as “Inactive”.
Consider `CN(CCNC(=O)[C@H]1CC[C@H](NC(=O)CCCO[C@H]2CC[C@H](OCCNC(=O)[C@H]3CC[C@H](NC(=O)CCCO[C@H]4CC[C@H](OCCNC(=O)[C@H]5CC(=O)N(C)[C@@H]5c5cccnc5)CC4)CC3)CC2)CC1)c1ccc2nccc(C(=O)NCC(=O)N3CC(F)(F)C[C@H]3C#N)c2c1` [compound 7], for which the EC50 was 5.01e-10 M in [8] (setting [10]), 2e-10 M in [8] (setting [11]), 5.01e-11 M in [9] (setting [13]) and 1e-09 M in [9] (setting [14]).
